≈ marks a conversion by molar mass, not a printed value.
Tests used:
[1] = Oral bioavailability of PEG400:Labrasol formulation in rats; conditions: rat, in vivo
[2] = Solubility of SR13668 in various solvents; type: physicochemical; conditions: for solubility: thermodynamic from solid
Text: The other three systems are similar to the Solutol solutions, but the Solutol is the best candidate having the lowest freezing point (see Table 10) and a high SR13668 solubility (see Table 11). […] Vit E TPGS is water soluble natural-source vitamin E d-alpha tocopheryl polyethyleneglycol succinate, 387 IU/g. Myrj is Polyethylene Glycol (50) Monostearate.

For `CCOC(=O)c1ccc2[nH]c3c(OC)c4[nH]c5ccc(C(=O)OCC)cc5c4cc3c2c1` [SR13668, 2,10-dicarbethoxy-6-methoxy-5,7-dihydro-indolo-(2,3-b)carbazole], the bioavailability [1] was < 1%, the “aqueous solubility” value [2] was “extremely low” and the solubility ([2]; 65 °C, aqueous with cosolvent or surfactant or cyclodextrin, Solutol, 65-70 ° C., HPLC) was 7000 µg/mL (≈ 16300 µM). The solubility ([2]; 65 °C, aqueous with cosolvent or surfactant or cyclodextrin, Vitamin E TPGS, 65-70 ° C., UV) was 5500 µg/mL (≈ 12800 µM), the solubility ([2]; 65 °C, organic solvent or mixture, Gelucire 44/14, 65-70 ° C., UV) was 4260 µg/mL (≈ 9900 µM) and the solubility ([2]; 65 °C, organic solvent or mixture, Gelucire 50/13, 65-70 ° C., UV) was 4150 µg/mL (≈ 9640 µM). For the same compound, the solubility ([2]; 65 °C, organic solvent or mixture, Myrj 52, 65-70 ° C., UV) was 6700 µg/mL (≈ 15600 µM), the solubility ([2]; 65 °C, organic solvent or mixture, Myrj 53, 65-70 ° C., UV) was 6800 µg/mL (≈ 15800 µM) and the solubility ([2]; 65 °C, organic solvent or mixture, PEG-400, 65-70 ° C., UV) was 9000 µg/mL (≈ 20900 µM). For the same compound, the solubility ([2]; 65 °C, organic solvent or mixture, PEG-400 New, 65-70 ° C., UV) was 7600 µg/mL (≈ 17700 µM), the solubility ([2]; 65 °C, organic solvent or mixture, PEG-1000, 65-70 ° C., UV) was 8150 µg/mL (≈ 18900 µM) and the solubility ([2]; 65 °C, organic solvent or mixture, PEG-2000, 65-70 ° C., UV) was 8800 µg/mL (≈ 20400 µM). For the same compound, the solubility ([2]; fassgf or other biorelevant, Simulated Intestinal Fluid, RT, HPLC) was 0.0075 µg/mL (≈ 0.0174 µM), the solubility ([2]; oil or lipid, Corn Oil, RT, HPLC) was 108 µg/mL (≈ 251 µM) and the solubility ([2]; oil or lipid, Safflower Oil, RT, HPLC) was 77 µg/mL (≈ 179 µM). For the same compound, the solubility ([2]; oil or lipid, Sesame Oil, RT, HPLC) was 47 µg/mL (≈ 109 µM), the solubility ([2]; oil or lipid, Soybean Oil, RT, HPLC) was 55 µg/mL (≈ 128 µM) and the solubility ([2]; oil or lipid, Sunflower Oil, RT, HPLC) was 66 µg/mL (≈ 153 µM). For the same compound, the solubility ([2]; organic solvent or mixture, 1-octanol, RT, HPLC) was 123 µg/mL (≈ 286 µM), the solubility ([2]; organic solvent or mixture, Absolute Ethanol, RT, HPLC) was 75 µg/mL (≈ 174 µM) and the solubility ([2]; organic solvent or mixture, Acetone, RT, HPLC) was 950 µg/mL (≈ 2210 µM). The solubility ([2]; organic solvent or mixture, Acetonitrile, RT, HPLC) was 84.9 µg/mL (≈ 197 µM), the solubility ([2]; organic solvent or mixture, Chemophore EL, RT, HPLC) was 264 µg/mL (≈ 613 µM) and the solubility ([2]; organic solvent or mixture, DMSO, RT, UV) was 106000 µg/mL (≈ 246000 µM). For the same compound, the solubility ([2]; organic solvent or mixture, Ethanol, RT, UV) was 148 µg/mL (≈ 344 µM), the solubility ([2]; organic solvent or mixture, Ethyl Acetate, RT, HPLC) was 230 µg/mL (≈ 534 µM) and the solubility ([2]; organic solvent or mixture, Glycerin, RT, HPLC) was 47 µg/mL (≈ 109 µM). The solubility ([2]; organic solvent or mixture, Labrasol, RT, UV) was 380 µg/mL (≈ 883 µM), the solubility ([2]; organic solvent or mixture, Methanol, RT, UV) was 86.3 µg/mL (≈ 200 µM) and the solubility ([2]; organic solvent or mixture, Methylene Chloride, RT, HPLC) was 62 µg/mL (≈ 144 µM). For the same compound, the solubility ([2]; organic solvent or mixture, PEG-400, RT, UV) was 880 µg/mL (≈ 2040 µM), the solubility ([2]; organic solvent or mixture, PEG-400 New, RT, UV) was 1370 µg/mL (≈ 3180 µM) and the solubility ([2]; organic solvent or mixture, Pluronic F-127, 120 ° C., HPLC) was 9480 µg/mL (≈ 22000 µM). The solubility ([2]; organic solvent or mixture, Propylene Glycol, RT, HPLC) was 84 µg/mL (≈ 195 µM), the solubility ([2]; Simulated Gastric Fluid, RT, HPLC) was 0.014 µg/mL (≈ 0.0325 µM) and the solubility ([2]; Water, RT, HPLC) was 0.01 µg/mL (≈ 0.0232 µM).
